From article doi:10.1101/2024.08.13.607785v1 (biorxiv, 2024)
Where two headings read alike, the source gives them in different places. One block for each compound: values may come before it.

What was measured:
Test in all cases: biochemical
Design in all cases: species or system human cell line lysate
[1] = target: 1-phosphatidylinositol 3-phosphate 5-kinase ; PIKFYVE ; Q9Y2I7 (Homo sapiens, UniProt Q9Y2I7)
[2] = target: 3-phosphoinositide-dependent protein kinase 1 ; PDPK1 ; O15530 (Homo sapiens, UniProt O15530)
[3] = target: AP2-associated protein kinase 1 ; AAK1 ; Q2M2I8 (Homo sapiens, UniProt Q2M2I8)
[4] = target: BMP-2-inducible protein kinase ; BMP2K ; Q9NSY1 (Homo sapiens, UniProt Q9NSY1)
[5] = target: Casein kinase I isoform epsilon ; CSNK1E ; P49674 (Homo sapiens, UniProt P49674)
[6] = target: Casein kinase I isoform gamma-1 ; CSNK1G1 ; Q9HCP0 (Homo sapiens, UniProt Q9HCP0)
[7] = target: T1, Ephrin type-B receptor 1 ; EPHB1 ; P54762 (Homo sapiens, UniProt P54762)
T1 sequence (P54762 1-984): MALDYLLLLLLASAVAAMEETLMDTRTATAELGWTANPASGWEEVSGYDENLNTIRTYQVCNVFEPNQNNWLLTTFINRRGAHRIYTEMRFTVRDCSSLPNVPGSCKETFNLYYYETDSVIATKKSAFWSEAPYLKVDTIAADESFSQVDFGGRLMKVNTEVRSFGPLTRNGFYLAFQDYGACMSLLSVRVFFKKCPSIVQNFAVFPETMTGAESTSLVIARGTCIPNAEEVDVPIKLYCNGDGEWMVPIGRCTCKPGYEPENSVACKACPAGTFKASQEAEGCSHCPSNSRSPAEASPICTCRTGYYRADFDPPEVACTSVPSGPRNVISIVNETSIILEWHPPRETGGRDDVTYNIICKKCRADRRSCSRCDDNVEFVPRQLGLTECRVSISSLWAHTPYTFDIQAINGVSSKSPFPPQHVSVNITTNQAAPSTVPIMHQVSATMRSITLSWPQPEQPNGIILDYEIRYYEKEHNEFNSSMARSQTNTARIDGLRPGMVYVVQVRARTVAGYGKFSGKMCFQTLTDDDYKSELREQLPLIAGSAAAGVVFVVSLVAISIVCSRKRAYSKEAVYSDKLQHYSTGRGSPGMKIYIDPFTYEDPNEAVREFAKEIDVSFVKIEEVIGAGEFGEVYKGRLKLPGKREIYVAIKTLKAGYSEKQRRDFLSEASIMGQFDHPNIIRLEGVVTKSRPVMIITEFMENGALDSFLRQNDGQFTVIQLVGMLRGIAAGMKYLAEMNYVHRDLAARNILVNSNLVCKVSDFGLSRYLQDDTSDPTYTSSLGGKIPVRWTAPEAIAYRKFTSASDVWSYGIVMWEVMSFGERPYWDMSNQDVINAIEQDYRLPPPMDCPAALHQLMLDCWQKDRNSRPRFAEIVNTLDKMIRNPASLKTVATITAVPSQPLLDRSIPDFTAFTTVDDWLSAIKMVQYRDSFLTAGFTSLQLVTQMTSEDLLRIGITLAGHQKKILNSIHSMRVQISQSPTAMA

[8] = target: Ephrin type-B receptor 4 ; EPHB4 ; P54760 (Homo sapiens, UniProt P54760)
[9] = target: Isoform 4 of Casein kinase I isoform gamma-3 ; CSNK1G3 ; Q9Y6M4-4 (Homo sapiens, UniProt Q9Y6M4)
[10] = target: Isoform GRK6B of G protein-coupled receptor kinase 6 ; GRK6 ; P43250-2 (Homo sapiens, UniProt P43250)
[11] = target: Leucine-rich repeat serine/threonine-protein kinase 2 ; LRRK2 ; Q5S007 (Homo sapiens, UniProt Q5S007)
[12] = target: Phosphatidylinositol 5-phosphate 4-kinase type-2 gamma ; PIP4K2C ; Q8TBX8 (Homo sapiens, UniProt Q8TBX8)
[13] = target: Serine/threonine-protein kinase D3 ; PRKD3 ; O94806 (Homo sapiens, UniProt O94806)
[14] = target: Serine/threonine-protein kinase MRCK alpha ; CDC42BPA ; Q5VT25 (Homo sapiens, UniProt Q5VT25)
[15] = target: Serine/threonine-protein kinase PLK4 ; PLK4 ; O00444 (Homo sapiens, UniProt O00444)
[16] = target: Serine/threonine-protein kinase ULK2 ; ULK2 ; Q8IYT8 (Homo sapiens, UniProt Q8IYT8)
[17] = read-out: BAY-1251152 (10 µM) / %Intensity relative to DMSO
[18] = read-out: BAY-1143572 (10 µM) / %Intensity relative to DMSO

Serine/threonine-protein kinase D3 ; PRKD3 ; O94806, sequence (O94806 whole entry, one chain of several): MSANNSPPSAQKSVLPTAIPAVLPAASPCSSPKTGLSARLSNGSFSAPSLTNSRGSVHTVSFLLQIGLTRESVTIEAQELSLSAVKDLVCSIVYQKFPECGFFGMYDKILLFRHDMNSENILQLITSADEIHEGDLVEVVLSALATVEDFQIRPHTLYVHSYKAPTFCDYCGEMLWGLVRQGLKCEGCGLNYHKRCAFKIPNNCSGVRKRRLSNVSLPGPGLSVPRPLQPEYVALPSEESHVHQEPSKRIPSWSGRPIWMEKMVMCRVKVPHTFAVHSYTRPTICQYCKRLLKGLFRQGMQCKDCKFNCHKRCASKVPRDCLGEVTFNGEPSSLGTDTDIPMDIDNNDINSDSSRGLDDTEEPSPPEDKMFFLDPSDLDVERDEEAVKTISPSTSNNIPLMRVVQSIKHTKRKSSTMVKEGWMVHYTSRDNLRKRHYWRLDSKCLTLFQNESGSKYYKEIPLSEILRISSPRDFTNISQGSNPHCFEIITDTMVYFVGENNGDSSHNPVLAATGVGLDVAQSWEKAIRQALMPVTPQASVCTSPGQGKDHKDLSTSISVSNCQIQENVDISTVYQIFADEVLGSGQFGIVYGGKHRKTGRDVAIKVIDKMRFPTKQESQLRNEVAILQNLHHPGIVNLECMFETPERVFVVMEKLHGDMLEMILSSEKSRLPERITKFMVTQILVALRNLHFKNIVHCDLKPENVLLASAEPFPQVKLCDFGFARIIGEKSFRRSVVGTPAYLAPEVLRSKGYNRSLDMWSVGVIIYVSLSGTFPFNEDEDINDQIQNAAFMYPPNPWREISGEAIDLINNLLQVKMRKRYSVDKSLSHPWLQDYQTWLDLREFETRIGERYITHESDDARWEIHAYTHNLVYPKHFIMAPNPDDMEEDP
AP2-associated protein kinase 1 ; AAK1 ; Q2M2I8, sequence (Q2M2I8 whole entry): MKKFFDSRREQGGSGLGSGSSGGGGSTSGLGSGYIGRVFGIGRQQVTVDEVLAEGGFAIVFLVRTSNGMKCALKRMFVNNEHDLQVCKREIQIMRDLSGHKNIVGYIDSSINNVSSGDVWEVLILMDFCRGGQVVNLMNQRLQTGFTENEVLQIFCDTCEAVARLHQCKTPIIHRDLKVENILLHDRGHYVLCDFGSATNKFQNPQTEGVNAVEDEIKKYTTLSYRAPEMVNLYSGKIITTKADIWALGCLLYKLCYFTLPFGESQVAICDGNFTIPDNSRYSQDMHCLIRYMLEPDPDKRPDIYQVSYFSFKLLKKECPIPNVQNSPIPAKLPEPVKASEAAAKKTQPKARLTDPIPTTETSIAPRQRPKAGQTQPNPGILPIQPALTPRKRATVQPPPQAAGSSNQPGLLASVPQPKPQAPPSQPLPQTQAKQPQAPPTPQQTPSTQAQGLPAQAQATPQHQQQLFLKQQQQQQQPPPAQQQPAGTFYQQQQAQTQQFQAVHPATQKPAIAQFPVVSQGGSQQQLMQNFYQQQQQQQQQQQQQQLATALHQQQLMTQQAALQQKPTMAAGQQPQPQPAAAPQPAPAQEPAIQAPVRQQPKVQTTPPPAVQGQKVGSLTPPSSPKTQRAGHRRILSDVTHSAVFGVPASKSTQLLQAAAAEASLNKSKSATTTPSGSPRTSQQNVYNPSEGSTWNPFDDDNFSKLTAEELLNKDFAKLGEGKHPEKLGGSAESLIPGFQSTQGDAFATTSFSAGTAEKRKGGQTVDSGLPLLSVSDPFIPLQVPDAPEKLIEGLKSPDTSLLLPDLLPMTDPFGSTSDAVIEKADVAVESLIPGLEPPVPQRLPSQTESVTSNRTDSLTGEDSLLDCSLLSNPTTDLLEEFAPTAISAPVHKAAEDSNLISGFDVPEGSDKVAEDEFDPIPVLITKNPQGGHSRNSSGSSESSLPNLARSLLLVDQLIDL
Serine/threonine-protein kinase MRCK alpha ; CDC42BPA ; Q5VT25, sequence (Q5VT25 whole entry, one chain of several): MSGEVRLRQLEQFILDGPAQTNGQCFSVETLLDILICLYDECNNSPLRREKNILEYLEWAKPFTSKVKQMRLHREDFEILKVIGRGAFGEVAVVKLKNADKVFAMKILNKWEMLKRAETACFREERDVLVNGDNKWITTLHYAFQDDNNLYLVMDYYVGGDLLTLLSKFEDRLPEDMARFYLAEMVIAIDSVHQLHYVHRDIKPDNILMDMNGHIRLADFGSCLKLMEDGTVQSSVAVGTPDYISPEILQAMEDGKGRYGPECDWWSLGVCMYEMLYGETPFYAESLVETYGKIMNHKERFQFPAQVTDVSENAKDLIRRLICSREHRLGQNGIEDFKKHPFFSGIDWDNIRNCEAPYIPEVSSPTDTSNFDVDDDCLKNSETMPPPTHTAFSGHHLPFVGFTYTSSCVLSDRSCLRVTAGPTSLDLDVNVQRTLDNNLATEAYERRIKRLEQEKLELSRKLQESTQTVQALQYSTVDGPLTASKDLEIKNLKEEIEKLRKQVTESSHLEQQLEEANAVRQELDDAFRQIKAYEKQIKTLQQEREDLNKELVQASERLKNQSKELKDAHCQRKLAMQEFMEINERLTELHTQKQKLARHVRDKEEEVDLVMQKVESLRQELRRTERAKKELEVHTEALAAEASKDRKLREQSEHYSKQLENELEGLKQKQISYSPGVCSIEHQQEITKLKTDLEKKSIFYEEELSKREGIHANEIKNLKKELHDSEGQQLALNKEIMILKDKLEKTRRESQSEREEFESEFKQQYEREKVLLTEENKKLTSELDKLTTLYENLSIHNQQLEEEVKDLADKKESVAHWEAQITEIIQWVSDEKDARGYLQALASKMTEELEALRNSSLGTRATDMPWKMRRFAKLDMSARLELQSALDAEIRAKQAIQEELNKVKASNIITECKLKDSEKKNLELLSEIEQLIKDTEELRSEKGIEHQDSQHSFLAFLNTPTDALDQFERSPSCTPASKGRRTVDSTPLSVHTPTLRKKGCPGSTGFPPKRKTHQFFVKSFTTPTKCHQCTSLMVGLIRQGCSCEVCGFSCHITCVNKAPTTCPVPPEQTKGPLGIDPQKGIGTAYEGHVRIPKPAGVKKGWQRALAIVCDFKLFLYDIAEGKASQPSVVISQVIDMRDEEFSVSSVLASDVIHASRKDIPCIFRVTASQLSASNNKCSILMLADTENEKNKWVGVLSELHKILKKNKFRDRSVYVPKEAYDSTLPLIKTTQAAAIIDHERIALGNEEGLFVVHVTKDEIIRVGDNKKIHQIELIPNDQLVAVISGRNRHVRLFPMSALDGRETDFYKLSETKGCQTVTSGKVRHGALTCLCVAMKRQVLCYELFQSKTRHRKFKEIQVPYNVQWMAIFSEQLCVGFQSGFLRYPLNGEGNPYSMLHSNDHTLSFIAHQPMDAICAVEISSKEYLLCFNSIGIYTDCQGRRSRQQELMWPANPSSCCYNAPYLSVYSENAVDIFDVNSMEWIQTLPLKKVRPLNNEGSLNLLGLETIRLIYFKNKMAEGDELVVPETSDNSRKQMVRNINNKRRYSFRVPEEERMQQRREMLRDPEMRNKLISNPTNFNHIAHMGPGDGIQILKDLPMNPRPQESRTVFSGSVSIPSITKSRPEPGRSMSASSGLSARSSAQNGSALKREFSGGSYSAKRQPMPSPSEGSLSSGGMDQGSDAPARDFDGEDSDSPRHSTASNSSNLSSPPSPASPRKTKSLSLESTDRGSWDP
Casein kinase I isoform gamma-1 ; CSNK1G1 ; Q9HCP0, sequence (Q9HCP0 whole entry, canonical isoform): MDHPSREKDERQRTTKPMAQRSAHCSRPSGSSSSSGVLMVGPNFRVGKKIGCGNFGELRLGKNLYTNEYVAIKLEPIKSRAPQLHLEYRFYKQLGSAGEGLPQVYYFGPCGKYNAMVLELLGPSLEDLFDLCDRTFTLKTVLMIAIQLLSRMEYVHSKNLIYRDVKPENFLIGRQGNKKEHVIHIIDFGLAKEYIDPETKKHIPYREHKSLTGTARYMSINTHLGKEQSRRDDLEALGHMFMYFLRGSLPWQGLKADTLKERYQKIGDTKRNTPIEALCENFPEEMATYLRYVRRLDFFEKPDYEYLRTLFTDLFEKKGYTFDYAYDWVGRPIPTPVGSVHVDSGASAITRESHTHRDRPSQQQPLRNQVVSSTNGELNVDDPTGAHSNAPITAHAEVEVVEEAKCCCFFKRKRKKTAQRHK
3-phosphoinositide-dependent protein kinase 1 ; PDPK1 ; O15530, sequence (O15530 whole entry): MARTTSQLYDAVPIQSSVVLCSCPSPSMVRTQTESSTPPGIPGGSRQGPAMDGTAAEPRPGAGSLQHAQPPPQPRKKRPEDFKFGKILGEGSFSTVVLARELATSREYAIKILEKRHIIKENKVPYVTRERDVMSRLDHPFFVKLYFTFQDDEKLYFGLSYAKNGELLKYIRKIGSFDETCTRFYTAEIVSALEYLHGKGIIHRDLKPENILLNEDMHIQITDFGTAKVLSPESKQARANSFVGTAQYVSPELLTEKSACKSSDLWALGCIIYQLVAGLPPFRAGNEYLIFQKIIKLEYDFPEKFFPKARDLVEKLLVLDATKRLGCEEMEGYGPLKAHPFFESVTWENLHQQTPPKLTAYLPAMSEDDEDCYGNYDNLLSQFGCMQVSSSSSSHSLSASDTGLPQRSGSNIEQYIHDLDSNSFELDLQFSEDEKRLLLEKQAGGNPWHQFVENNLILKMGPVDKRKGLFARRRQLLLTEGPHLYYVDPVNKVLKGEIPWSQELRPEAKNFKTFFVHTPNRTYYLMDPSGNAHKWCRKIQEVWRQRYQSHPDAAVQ
Casein kinase I isoform epsilon ; CSNK1E ; P49674, sequence (P49674 whole entry, canonical isoform): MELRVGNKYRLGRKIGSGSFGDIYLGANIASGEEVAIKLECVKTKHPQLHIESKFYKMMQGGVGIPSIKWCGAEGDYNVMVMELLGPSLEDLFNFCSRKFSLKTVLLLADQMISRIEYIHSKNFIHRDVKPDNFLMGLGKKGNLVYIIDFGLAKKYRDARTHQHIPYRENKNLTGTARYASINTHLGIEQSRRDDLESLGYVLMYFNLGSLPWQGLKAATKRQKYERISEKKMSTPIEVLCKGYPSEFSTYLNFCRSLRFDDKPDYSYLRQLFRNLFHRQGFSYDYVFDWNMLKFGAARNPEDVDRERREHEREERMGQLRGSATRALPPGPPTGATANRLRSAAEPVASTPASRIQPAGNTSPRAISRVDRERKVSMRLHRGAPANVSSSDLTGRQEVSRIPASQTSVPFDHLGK

remaining activity at 10 µM [1, 17]: 102%
remaining activity at 10 µM [2, 17]: 104%
remaining activity at 10 µM [3, 17]: 87.9%
remaining activity at 10 µM [4, 17]: 84.7%
remaining activity at 10 µM [5, 17]: 101%
remaining activity at 10 µM [6, 17]: 163%
remaining activity at 10 µM [7, 17]: 108%
remaining activity at 10 µM [8, 17]: 100%
remaining activity at 10 µM [9, 17]: 110%
remaining activity at 10 µM [10, 17]: 111%
remaining activity at 10 µM [11, 17]: 107%
remaining activity at 10 µM [12, 17]: 107%
remaining activity at 10 µM [13, 17]: 102%
remaining activity at 10 µM [14, 17]: 107%
remaining activity at 10 µM [15, 17]: 109%
remaining activity at 10 µM [16, 17]: 104%
SMILES: COc1cc(F)ccc1-c1cc(Nc2cc(CS(C)(=N)=O)ccn2)ncc1F (centres unmarked) [BAY-1251152]

remaining activity at 10 µM [1, 18]: 94.3%
remaining activity at 10 µM [2, 18]: 114%
remaining activity at 10 µM [3, 18]: 80.2%
remaining activity at 10 µM [4, 18]: 88.5%
remaining activity at 10 µM [5, 18]: 111%
remaining activity at 10 µM [6, 18]: 175%
remaining activity at 10 µM [7, 18]: 91.7%
remaining activity at 10 µM [8, 18]: 94.1%
remaining activity at 10 µM [9, 18]: 113%
remaining activity at 10 µM [10, 18]: 137%
remaining activity at 10 µM [11, 18]: 109%
remaining activity at 10 µM [12, 18]: 110%
remaining activity at 10 µM [13, 18]: 108%
remaining activity at 10 µM [14, 18]: 97.1%
remaining activity at 10 µM [15, 18]: 104%
remaining activity at 10 µM [16, 18]: 92.9%
SMILES: COc1cc(F)ccc1-c1ncnc(Nc2cccc(C[S@](C)(=N)=O)c2)n1 [BAY-1143572]
